Results taken from PubChem BioAssay (NCI).
Several values for one entry are separate records, joined by “and”; a condition that tells them apart may be missing. Equal entries are not always repeated.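 Cultured in 96-well plates, cells were exposed to test compound for 48 hours across five concentrations. GI50 = concentration required for 50% inhibition of growth. Definition used: TGI = concentration required for complete inhibition of growth.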

Legend:
Assay in all cases: NCI tumour cell line growth inhibition, 48 h
ACHN renal = test system: ACHN renal
CCRF-CEM leukemia = test system: CCRF-CEM leukemia
UO-31 renal = test system: UO-31 renal
M19-MEL melanoma = test system: M19-MEL melanoma
EKVX NSCLC = test system: EKVX NSCLC
SNB-75 CNS = test system: SNB-75 CNS
KM20L2 colon = test system: KM20L2 colon
MDA-MB-435 = test system: MDA-MB-435
SR leukemia = test system: SR leukemia
DU-145 prostate = test system: DU-145 prostate

Compound | TGI (ACHN renal) [µM] | TGI (CCRF-CEM leukemia) | TGI (UO-31 renal) [µM] | TGI (M19-MEL melanoma) [µM] | TGI (EKVX NSCLC) | TGI (SNB-75 CNS) | TGI (KM20L2 colon) [µM] | GI50 (ACHN renal) | GI50 (CCRF-CEM leukemia) | GI50 (UO-31 renal) | GI50 (EKVX NSCLC) | GI50 (SNB-75 CNS) | GI50 (KM20L2 colon) [µM] | GI50 (MDA-MB-435) | TGI (MDA-MB-435) | GI50 (SR leukemia) | TGI (SR leukemia) | GI50 (DU-145 prostate) | TGI (DU-145 prostate)
CC(C)c1ccc(C2C3=C(N=C4SCC(=O)N42)C(=O)c2ccccc23)cc1 (stereo unspecified) | > 100 | > 100 µM | > 100 | > 100 | > 100 µM | > 100 µM | > 100 |  |  |  |  |  |  |  |  |  |  |  | 
O=C1NC(=O)C2C(=O)NC(=O)C1C2(c1ccccc1)c1cc[nH]c1 (stereo unspecified) | > 100 | > 100 µM | > 100 | > 100 | > 100 µM | > 100 µM |  |  |  |  |  |  |  |  |  |  |  |  | 
N#Cc1c(NN)nc(NN)c(C#N)c1-c1ccccc1 | > 100 | > 100 µM | > 100 | > 100 | > 100 µM | > 100 µM | > 100 |  |  |  |  |  |  |  |  |  |  |  | 
CCOc1ccccc1NC(=O)CC1SC(=Nc2ccc([N+](=O)[O-])cc2)NC1=O (stereo unspecified) | 46 | 54.3 µM | 37.7 | 64.4 | 72.3 µM | 74.2 µM | 42.2 |  |  |  |  |  |  |  |  |  |  |  | 
CC(=O)[CH-]C(=O)c1ccccc1.CC(=O)[CH-]C(=O)c1ccccc1.CC(C)CCCC(C)[C@H]1CCC2[C@@H]3CC=C4C[C@@H]([O-])CC[C@]4(C)C3CC[C@@]21C.CC[O-].[Ti+4] (stereo partly specified) | > 100 | > 100 µM | > 100 |  | > 100 µM | > 100 µM | > 100 | 61 µM | 35.5 µM | 29.4 µM | 66.8 µM | 28.5 µM | 67.8 |  |  |  |  |  | 
C=C1C(=O)O[C@H]2[C@H]1CC/C(Cn1cc(-c3cc(C(F)(F)F)cc(C(F)(F)F)c3)nn1)=C\CC[C@@]1(C)O[C@@H]21 | 0.325 | 0.821 µM | 1.58 |  | 2.95 µM | 2.52 µM |  | 0.16 µM | 0.169 µM | 0.382 µM | 1.5 µM | 1.26 µM |  | 0.743 µM | 2.08 µM | 0.103 µM | 0.444 µM | 0.726 µM | 2.02 µM
COc1cc2c3c(n(CCCN)c(=O)c2cc1OC)-c1cc2c(cc1/C3=C\CCN)OCO2 | 45 | 36.5 µM | 45.7 |  | 15.9 µM | 8.02 µM |  | 5.81 µM | 0.196 µM | 13.5 µM | 5.07 µM | 1.85 µM |  |  | > 36 µM | 0.166 µM | > 100 µM | 2.52 µM | 12.7 µM
COC(=O)C1=C(C(=O)ON)C2C=CC1(C(Cc1ccccc1)Nc1ccccc1)O2 (stereo unspecified) | 2.99 | 16.9 µM | 2.8 |  | 3.51 µM | 21.2 µM |  | 1.63 µM | 2.23 µM | 1.47 µM | 1.75 µM | 8.9 µM |  | 1.92 µM | 3.86 µM | 2.67 µM | 43.6 µM | 2.01 µM | 4.18 µM
C=C(CN1C(=O)[C@H]2CCCN2C(=O)c2ccccc21)c1ccc(C(=O)O)cc1 | > 100 | > 100 µM | > 100 |  | > 100 µM | > 100 µM |  | > 100 µM | > 100 µM | > 100 µM | > 100 µM | > 100 µM |  | > 100 µM | > 100 µM | > 100 µM | > 100 µM | > 100 µM | > 100 µM
CC1(c2cccc3ccccc23)OC(=O)c2ccccc21 (stereo unspecified) | 70.9 | 52.3 µM | 78.7 | 51.3 | > 100 µM | 46 µM | 35.7 |  |  |  |  |  |  |  |  |  |  |  | 
COc1ncc(-c2ccc3nccc(-c4ccnnc4)c3c2)cc1NS(=O)(=O)c1ccc(F)cc1F | > 74.3 | 0.706 µM and 4.04 µM |  |  | 1.23 µM and 1.73 µM | 0.0135 µM and < 0.0156 µM |  | 0.0104 µM and < 0.0114 µM | 0.0333 µM and 0.0262 µM | 0.00213 µM and < 0.01 µM | 0.0138 µM and 0.013 µM | 0.00133 µM and < 0.01 µM |  | 0.0105 µM and < 0.0117 µM | 1.13 µM and 0.863 µM | 0.0169 µM and 0.0203 µM | 0.499 µM and 0.345 µM | 0.0119 µM and 0.0164 µM | > 10 µM and 13 µM
N#CC(C(=O)/C(=N/N)C(C#N)c1ccccc1)c1ccccc1 (stereo unspecified) | > 100 | > 100 µM | > 100 | > 100 | > 100 µM |  |  |  |  |  |  |  |  |  |  |  |  |  | 
O=C(c1ccco1)c1nc2cc(Cl)ccc2[n+]([O-])c1C(F)(F)F | > 100 | 0.443 µM | > 100 |  | > 100 µM | > 100 µM |  | 51.2 µM | 0.0182 µM | > 100 µM | 37.6 µM | 46 µM |  | > 100 µM | > 100 µM | 17.1 µM | 44.3 µM | 76.5 µM | > 100 µM
Ic1ccccc1-c1ccccc1 | > 100 | > 100 µM | > 100 |  | > 100 µM | > 100 µM |  | > 100 µM | 41.5 µM | 74.5 µM | > 100 µM | > 100 µM |  | > 100 µM | > 100 µM | 18.3 µM | > 100 µM | > 100 µM | > 100 µM
O=C1C(Cl)=C(Nc2cccc(Cl)c2)C(=O)N1Cc1ccccc1Cl | 17.1 | > 100 µM | 5.01 |  | 50.9 µM | 30 µM |  | 4.36 µM | 0.457 µM | 1.47 µM | 20.2 µM | 5.48 µM |  | 1.01 µM | 4.09 µM | 0.26 µM | 0.645 µM | 18.2 µM | 38.1 µM
O=c1cc2ccccc2nn1Cc1cccc(Cl)c1 | > 100 | > 100 µM | > 100 | > 100 | > 100 µM | > 100 µM | > 100 |  |  |  |  |  |  |  |  |  |  |  | 
CC(C)(C)c1nn(-c2ccccc2)c2c1C(=O)CSC(c1ccccc1Cl)N2 (stereo unspecified) | 19.3 | 13.5 µM | 19.1 |  | 26.1 µM | 13.9 µM |  | 4.87 µM | 2.48 µM | 3.03 µM | 3.71 µM | 2.2 µM |  | 0.304 µM | 1.31 µM | 0.413 µM | 9.89 µM | 2.86 µM | 10.7 µM
Nc1c(Br)cc(Br)c2c1[nH]c(=O)c1ccccc12 | 10.4 | > 81.8 µM | 5.9 |  | 11.1 µM | 3.77 µM |  | 3.18 µM | 14 µM | 2.17 µM | 1.36 µM | 1.36 µM |  | 19.5 µM | > 100 µM | 2.39 µM | 5.91 µM | 23.6 µM | > 100 µM
